Marks after values point to notes of the source that are not given here.
How the values were obtained:
Type in all cases: in vivo, human
[1] = Phase 2/3 104-week placebo-controlled study of lanabecestat in early Alzheimer's Disease: effect on weight; details: for Weight decrease ≥ 7%, (%): placebo 12.7; for mean weight change: completers at week 104, placebo 0.0 kg
Description: A Phase 2/3, multicenter, randomized, 104-week, double-blind, placebo-controlled, global study of lanabecestat in patients with early Alzheimer's Disease (AD), defined as the continuum of patients with mild cognitive impairment (MCI) due to AD and patients diagnosed with mild AD dementia.
Lanabecestat, i.e., the camsylate salt of (1r,1′R,4R)-4-methoxy-5″-methyl-6′-[5-(prop-1-yn-1-yl)pyridin-3-yl]-3′H-dispiro[cyclohexane-1,2′-indene-1′,2″-imidazol]-4″-amine
was provided orally once daily for 104 weeks at 20 mg or 50 mg and compared to the results for once daily administration of placebo.
The key inclusion criteria for the study were as follows: • Population aged 55 to 85 years old; • Mild AD: meet National Institute on Aging and the Alzheimer's Association (NIA-AA) criteria with a Clinical Dementia Rating Scale-Global Score (CDR-GS) of 0.5 or 1; • MCI: meet NIA-AA criteria with a CDR-GS of 0.5; • CDR memory box score ≥0.5; • Mini-Mental State Examination (MMSE)≥20; • Repeatable Battery for the Assessment of Neuropsychological Status Delayed Memory Index (RBANS DMI)≤85; • Study partner; • Amyloid positive • Cerebrospinal fluid; or • Florbetapir amyloid Positron Emission Tomography (PET); or • Historical amyloid PET.
The key exclusion criteria for the study were as follows: • Unstable medical conditions or medications; • Magnetic Resonance Imaging (MRI): >5 microhemorrhages, significant cerebrovascular pathology, or other pathologies; • QT interval adjusted for heart rate using the Fridericia formula (QTcF) >470 ms; • History of vitiligo and/or current evidence of post-inflammatory hypo-pigmentation or exposure to depigmenting agents.
Comparing completers at week 104, the mean weight change was for 0.0 kg for placebo (n=202), −0.8 kg for lanabecestat 20 mg (n=187), and −1.9 kg for lanabecestat 50 mg (n=178). The overall p-value and pairwise p-value compared to placebo was ≤0.05 (nominal p-value, not adjusted for multiplicity).

[2] = Phase 3 study of lanabecestat in mild AD dementia, 78-week placebo-controlled period: effect on weight; details: for Weight decrease ≥ 7%, (%): placebo 6.3; for mean weight change: completers at week 78, placebo −0.2 kg
Method: A Phase 3, multicenter, randomized, double-blind, global study of lanabecestat in patients with mild AD dementia that included a 78-week placebo-controlled period, for which results are provided below.
Lanabecestat was provided orally once daily for 78 weeks at 20 mg or 50 mg and compared to the results for once daily administration of placebo.
The key inclusion criteria for the study were as follows: • Population aged 55 to 85 years; • Mild AD: meet National Institute on Aging and the Alzheimer's Association (NIA-AA) criteria with a Clinical Dementia Rating Scale-Global Score (CDR-GS) of 0.5 or 1, with memory box score ≥0.5; • Mini-Mental State Examination (MMSE) score 20-26; • Study partner; • Amyloid positive • Cerebrospinal fluid; or • Florbetapir amyloid Positron Emission Tomography (PET); or • Historical amyloid PET.
The key exclusion criteria for the study were: • Unstable medical conditions or medications; • Magnetic resonance imaging (MRI): >5 microhemorrhages, significant cerebrovascular pathology, or other pathologies; • QT interval adjusted for heart rate using the Fridericia formula (QTcF) >470 ms; • History of vitiligo and/or current evidence of post-inflammatory hypo-pigmentation.
Comparing completers at week 78, the mean weight change was −0.2 kg for placebo (n=24), −1.4 kg for lanabecestat 20 mg (n=27), and −2.9 kg for lanabecestat 50 mg (n=20). The overall p-value and pairwise p-value compared to placebo was ≤0.05 (nominal p-value, not adjusted for multiplicity).

[3] = Combined analysis of the two studies of Examples 1 and 2: weight change from baseline and weight decrease over time; details: for mean (SD) kg change from baseline: 52 weeks
Method: A further analysis of the subjects in the two studies described in Examples 1 and 2 above was performed, for which results are provided below.
FIGS. 1-3 show weight change from baseline over the course of the 104 week studies. […] At 52 weeks, the mean (SD) kg change from baseline in the Lanabecestat 50 mg group versus placebo was −1.5 kg (4.4) vs +0.1 kg (3.4).
At 52 weeks, the mean (SD) kg change from baseline in the Lanabecestat 50 mg group versus placebo was −0.65 kg (3.4) vs +0.3 kg (3.3).
Table 10 provides data for the weight decrease over time for the population with a baseline BMI>25 kg/m^2 versus the overall population, showing that there is a greater percent decrease in weight in the higher BMI group versus the overall population.

[4] = week 26, all patients, L20 (20 mg), N=1080
[5] = week 26, all patients, L50 (50 mg), N=1047
[6] = week 26, patients with baseline BMI > 25, L20 (20 mg), N=532
[7] = week 26, patients with baseline BMI > 25, L50 (50 mg), N=494
[8] = week 52, all patients, L20 (20 mg), N=726
[9] = week 52, all patients, L50 (50 mg), N=716
[10] = week 52, patients with baseline BMI > 25, L20 (20 mg), N=348
[11] = week 52, patients with baseline BMI > 25, L50 (50 mg), N=348
[12] = week 78, all patients, L20 (20 mg), N=366
[13] = week 78, all patients, L50 (50 mg), N=347
[14] = week 78, patients with baseline BMI > 25, L20 (20 mg), N=170
[15] = week 78, patients with baseline BMI > 25, L50 (50 mg), N=161
[16] = week 104, all patients, L20 (20 mg), N=187
[17] = week 104, all patients, L50 (50 mg), N=178
[18] = week 104, patients with baseline BMI > 25, L20 (20 mg), N=89
[19] = week 104, patients with baseline BMI > 25, L50 (50 mg), N=77

With `CC#Cc1cncc(-c2ccc3c(c2)[C@@]2(N=C(C)C(N)=N2)[C@]2(CC[C@H](OC)CC2)C3)c1` [Lanabecestat, (1r,1′R,4R)-4-methoxy-5″-methyl-6′-[5-(prop-1-yn-1-yl)pyridin-3-yl]-3′H-dispiro[cyclohexane-1,2′-indene-1′,2″-imidazol]-4″-amine] the “Weight decrease ≥ 7%, (%)” value ([1]; 20 mg, N=728) was “(21.2)* %”, the “Weight decrease ≥ 7%, (%)” value ([1]; 50 mg, N=723) was “(24.9)* %” and the mean weight change ([1]; lanabecestat 20 mg once daily oral, n=187) was -0.8 kg. The mean weight change ([1]; lanabecestat 50 mg once daily oral, n=178) was -1.9 kg, the “Weight decrease ≥ 7%, (%)” value ([2]; 20 mg, N=570) was “(9.5) %” and the “Weight decrease ≥ 7%, (%)” value ([2]; 50 mg, N=545) was “(14.5)* %”. The mean weight change ([2]; lanabecestat 20 mg once daily oral, n=27) was -1.4 kg, the mean weight change ([2]; lanabecestat 50 mg once daily oral, n=20) was -2.9 kg and the “weight loss of ≥5% and ≥10% versus placebo” value ([3]; 50 mg, at 2 years) was “statistically significant weight loss”. The “mean (SD) kg change from baseline” value ([3]; baseline BMI>25 kg/m^2, 50 mg, SD 5.2, placebo −0.4 kg (3.6)) was -2.5 kg, the “mean (SD) kg change from baseline” value ([3]; baseline BMI≤25 kg/m^2, 50 mg, SD 3.4, placebo +0.3 kg (3.3)) was -0.65 kg and the “mean (SD) kg change from baseline” value ([3]; overall population, 50 mg, SD 4.4, placebo +0.1 kg (3.4)) was -1.5 kg. The “Weight loss ≥5%, % of patients” value [3, 4] was “(14%)***”, the “Weight loss ≥5%, n patients” value [3, 4] was 147 and the “Weight loss ≥10%, % of patients” value [3, 4] was 1%. The “Weight loss ≥10%, n patients” value [3, 4] was 15, the “Weight loss ≥15%, % of patients” value [3, 4] was 0.3% and the “Weight loss ≥15%, n patients” value [3, 4] was 3. The “Weight loss ≥5%, % of patients” value [3, 5] was “(16%)***”, the “Weight loss ≥5%, n patients” value [3, 5] was 172 and the “Weight loss ≥10%, % of patients” value [3, 5] was “(3%)**”. The “Weight loss ≥10%, n patients” value [3, 5] was 28, the “Weight loss ≥15%, % of patients” value [3, 5] was 0.5% and the “Weight loss ≥15%, n patients” value [3, 5] was 5. The “Weight loss ≥5%, % of patients” value [3, 6] was “(16%)***”, the “Weight loss ≥5%, n patients” value [3, 6] was 87 and the “Weight loss ≥10%, % of patients” value [3, 6] was 2%. For the same compound, the “Weight loss ≥10%, n patients” value [3, 6] was 11, the “Weight loss ≥15%, % of patients” value [3, 6] was 0.6% and the “Weight loss ≥15%, n patients” value [3, 6] was 3. For the same compound, the “Weight loss ≥5%, % of patients” value [3, 7] was “(18%)***”, the “Weight loss ≥5%, n patients” value [3, 7] was 90 and the “Weight loss ≥10%, % of patients” value [3, 7] was 4%. The “Weight loss ≥10%, n patients” value [3, 7] was 20, the “Weight loss ≥15%, % of patients” value [3, 7] was 1% and the “Weight loss ≥15%, n patients” value [3, 7] was 3. The “Weight loss ≥5%, % of patients” value [3, 8] was “(19%)***”, the “Weight loss ≥5%, n patients” value [3, 8] was 139 and the “Weight loss ≥10%, % of patients” value [3, 8] was 5%. For the same compound, the “Weight loss ≥10%, n patients” value [3, 8] was 35, the “Weight loss ≥15%, % of patients” value [3, 8] was 1% and the “Weight loss ≥15%, n patients” value [3, 8] was 8. The “Weight loss ≥5%, % of patients” value [3, 9] was “(25%)***”, the “Weight loss ≥5%, n patients” value [3, 9] was 180 and the “Weight loss ≥10%, % of patients” value [3, 9] was “(5%)**”. For the same compound, the “Weight loss ≥10%, n patients” value [3, 9] was 39, the “Weight loss ≥15%, % of patients” value [3, 9] was 1% and the “Weight loss ≥15%, n patients” value [3, 9] was 8. For the same compound, the “Weight loss ≥5%, % of patients” value [3, 10] was “(24%)***”, the “Weight loss ≥5%, n patients” value [3, 10] was 82 and the “Weight loss ≥10%, % of patients” value [3, 10] was 7%. The “Weight loss ≥10%, n patients” value [3, 10] was 26, the “Weight loss ≥15%, % of patients” value [3, 10] was 2% and the “Weight loss ≥15%, n patients” value [3, 10] was 8. For the same compound, the “Weight loss ≥5%, n patients” value [3, 11] was 104, the “Weight loss ≥10%, % of patients” value [3, 11] was 7% and the “Weight loss ≥10%, n patients” value [3, 11] was 26. For the same compound, the “Weight loss ≥15%, % of patients” value [3, 11] was 2%, the “Weight loss ≥15%, n patients” value [3, 11] was 6 and the “Weight loss ≥5%, % of patients” value [3, 12] was “(23%)**”. The “Weight loss ≥5%, n patients” value [3, 12] was 85, the “Weight loss ≥10%, % of patients” value [3, 12] was 7% and the “Weight loss ≥10%, n patients” value [3, 12] was 26. For the same compound, the “Weight loss ≥15%, % of patients” value [3, 12] was 2%, the “Weight loss ≥15%, n patients” value [3, 12] was 9 and the “Weight loss ≥5%, % of patients” value [3, 13] was “(31%)***”. The “Weight loss ≥5%, n patients” value [3, 13] was 107, the “Weight loss ≥10%, % of patients” value [3, 13] was “(10%)***” and the “Weight loss ≥10%, n patients” value [3, 13] was 36. For the same compound, the “Weight loss ≥15%, % of patients” value [3, 13] was 2%, the “Weight loss ≥15%, n patients” value [3, 13] was 7 and the “Weight loss ≥5%, % of patients” value [3, 14] was “(31%)*”. For the same compound, the “Weight loss ≥5%, n patients” value [3, 14] was 52, the “Weight loss ≥10%, % of patients” value [3, 14] was 10% and the “Weight loss ≥10%, n patients” value [3, 14] was 17. For the same compound, the “Weight loss ≥15%, % of patients” value [3, 14] was 5%, the “Weight loss ≥15%, n patients” value [3, 14] was 9 and the “Weight loss ≥5%, % of patients” value [3, 15] was “(35%)**”. The “Weight loss ≥5%, n patients” value [3, 15] was 57, the “Weight loss ≥10%, % of patients” value [3, 15] was 12% and the “Weight loss ≥10%, n patients” value [3, 15] was 20. The “Weight loss ≥15%, % of patients” value [3, 15] was 3%, the “Weight loss ≥15%, n patients” value [3, 15] was 5 and the “Weight loss ≥5%, % of patients” value [3, 16] was 26%. For the same compound, the “Weight loss ≥5%, n patients” value [3, 16] was 48, the “Weight loss ≥10%, % of patients” value [3, 16] was 9% and the “Weight loss ≥10%, n patients” value [3, 16] was 16. The “Weight loss ≥15%, % of patients” value [3, 16] was 2%, the “Weight loss ≥15%, n patients” value [3, 16] was 4 and the “Weight loss ≥5%, % of patients” value [3, 17] was “(38%)***”. The “Weight loss ≥5%, n patients” value [3, 17] was 67, the “Weight loss ≥10%, % of patients” value [3, 17] was “(17%)***” and the “Weight loss ≥10%, n patients” value [3, 17] was 31. For the same compound, the “Weight loss ≥15%, % of patients” value [3, 17] was 3%, the “Weight loss ≥15%, n patients” value [3, 17] was 6 and the “Weight loss ≥5%, % of patients” value [3, 18] was 30%. The “Weight loss ≥5%, n patients” value [3, 18] was 27, the “Weight loss ≥10%, % of patients” value [3, 18] was 15% and the “Weight loss ≥10%, n patients” value [3, 18] was 13. The “Weight loss ≥15%, % of patients” value [3, 18] was 4 (4%), the “Weight loss ≥15%, n patients” value [3, 18] was 4 (4%) and the “Weight loss ≥5%, % of patients” value [3, 19] was “(42%)**”. For the same compound, the “Weight loss ≥5%, n patients” value [3, 19] was 32, the “Weight loss ≥10%, % of patients” value [3, 19] was 19% and the “Weight loss ≥15%, % of patients” value [3, 19] was 4%. For the same compound, the “Weight loss ≥15%, n patients” value [3, 19] was 3.

Reference: US20220175749A1, “LANABECESTAT FOR WEIGHT LOSS” (ASTRAZENECA AB, priority 2019, published 2022)
